Source: patent US5156955A, “Nucleoside oxidase and assay method utilizing same” (priority 1988, dated 1992)
Where two headings read alike, the source gives them in different places.

Columns and labels:
nucleoside oxidase YT-1 [1] = settings: for Amount of oxygen consumption / Amount of p-quinone formed: 0.06 μM inosine
nucleoside oxidase YT-1 [2] = assay: Specificity test on laccase substrate (laccase-like activity in presence of inosine); type: biochemical, Pseudomonas maltophilia LB-86; settings: 1 mM laccase substrate, 7 mM inosine, one unit enzyme, 5 minutes
Method: The present enzyme was tested for the substrate specificity of its laccase-like activity in the presence of 7 mM inosine in the following manner. One unit of the present enzyme was added to a specimen containing 7 mM of inosine and 1 mM of the laccase substrate shown in Table 5, and the mixture was allowed to stand for 5 minutes. The absorption spectrum of the specimen was obtained before and after the addition of the enzyme.

nucleoside oxidase YT-1 [3] = assay: Substrate specificity test (nucleoside oxidase activity, oxygen consumption); type: biochemical, Pseudomonas maltophilia LB-86; settings: for Relative activity: relative to activity on inosine taken as 100; for Substrate specificity (enzyme active / not active on substance): statement in words
Method: (§1) The consumption of 1 μM of oxygen per minute is taken as 1 unit (U).

nucleoside oxidase YT-1 [4] = assay: Influence of metal ions on the activity; type: biochemical, Pseudomonas maltophilia LB-86; settings: metal salt 0.1 mM; enzyme 0.02 U on inosine, pH 6.0, 25° C., 10 minutes
Method: A solution of the enzyme (0.02 U) was caused to act on inosine at pH 6.0 and 25° C. for 10 minutes in the presence of various metal ions, and the activity of the enzyme was thereafter measured to check the influence of the metal ions on the activity.

nucleoside oxidase YT-1 [5] = type: biochemical, Pseudomonas maltophilia LB-86
Method: A solution of the present enzyme (0.02 U) was caused to act on inosine at pH 6.0 and 25° C. for 10 minutes in the presence of various inhibitors, and the enzymatic activity was thereafter measured.

nucleoside oxidase YT-1 [6] = assay: Enzymatic activity test I: oxidation reaction products and stoichiometry; type: biochemical, Pseudomonas maltophilia LB-86
Method: During a reaction period of 0 to 800 minutes, the reaction muxture was partly collected at suitable time intervals and analyzed by high performance liquid chromatography (HPLC) with a column of Fine SIL C18 (product of Japan Spectroscopic Co., Ltd.) using as a solvent 50 mM phosphate buffer (pH 3.0)/methanol=95/5 at a flow rate of 1.5 ml/min. Absorption was detected at 260 nm.
The amount of oxygen consumption was determined by an oxygen electrode, the amount of P-2 produced from the peak area of HPLC, and the amount of hydrogen peroxide by the phenol-4-aminoantipyrine peroxidase method and the ferrithiocyanide method (Ronald Thurman et al., Eur. J. Biochem., 25, 420-430 (1972)).

nucleoside oxidase YT-1 [7] = assay: Km value; type: biochemical, Pseudomonas maltophilia LB-86; settings: read-out: apparent Km value
Method: as §1

[8] = 0.02 μM 1,4-hydroquinone, 1 U enzyme, pH 7.0
[9] = 0.06 μM 1,4-hydroquinone, 1 U enzyme, pH 7.0
[10] = 0.60 μM 1,4-hydroquinone, 1 U enzyme, pH 7.0
[11] = inhibitor 1 mM, enzyme 0.02 U on inosine, pH 6.0, 25° C., 10 minutes

Q: Which “Amount of oxygen consumption” value (nucleoside oxidase YT-1 [1]; [8]) does the source give for `Oc1ccc(O)cc1` [1,4-Hydroquinone] here?
A: Its value is 0.069 µM.

Q: And the “Amount of p-quinone formed” value (nucleoside oxidase YT-1 [1]; [8])?
A: Its value is 0.019 µM.

Q: What about the “Amount of oxygen consumption” value (nucleoside oxidase YT-1 [1]; [9]) of the same molecule?
A: The value was 0.089 µM.

Q: And the “Amount of p-quinone formed” value (nucleoside oxidase YT-1 [1]; [9])?
A: The value was 0.060 µM.

Q: What about the “oxygen used for oxidizing 1,4-hydroquinone” value (nucleoside oxidase YT-1 [1]; 0.115 μM minus 0.06 μM used for inosine, 0.12 μM 1,4-hydroquinone) of the same molecule?
A: Its value is 0.055 µM.

Q: What about the “Amount of p-quinone formed” value (nucleoside oxidase YT-1 [1]; 0.12 μM 1,4-hydroquinone, 1 U enzyme, pH 7.0) of the same molecule?
A: The value was 0.115 µM.

Q: And the “Amount of oxygen consumption” value (nucleoside oxidase YT-1 [1]; 0.12 μM 1,4-hydroquinone, 1 U enzyme, pH 7.0 (Table 3))?
A: The value was 0.112 µM.

Q: What about the “Amount of oxygen consumption” value (nucleoside oxidase YT-1 [1]; 0.12 μM 1,4-hydroquinone, room temperature, 10 minutes (stoichiometry test)) of the same molecule?
A: Its value is 0.115 µM.

Q: And the “Amount of oxygen consumption” value (nucleoside oxidase YT-1 [1]; [10])?
A: The value was 0.115 µM.

Q: What about the “Amount of p-quinone formed” value (nucleoside oxidase YT-1 [1]; [10]) of the same molecule?
A: The value was 0.119 µM.

Q: And the “laccase reaction without nucleoside” value (nucleoside oxidase YT-1 [1]; enzyme mixed with laccase substrate, no nucleoside present)?
A: Its value is “no reaction occurs”.

Q: What about the “Change in absorption spectrum due to reaction” value (nucleoside oxidase YT-1 [2]) of the same molecule?
A: Its value is “New peak at 243 nm”.

Q: Which Relative activity (nucleoside oxidase YT-1 [3]; substrate 20 mM) does the source give for `O=CC[C@H](O)[C@H](O)CO` [2-Deoxy-D-ribose] here?
A: Its Relative activity is 0%.

Q: `Nc1ncnc2c1ncn2[C@@H]1O[C@H](COP(=O)(O)OP(=O)(O)O)[C@@H](O)[C@H]1O` [5'-ADP] was tested. Which Relative activity (nucleoside oxidase YT-1 [3]; substrate 10 mM) did it give?
A: The Relative activity was 0%.

Q: How did the Relative activity (nucleoside oxidase YT-1 [3]; substrate 10 mM) turn out when `Nc1ncnc2c1ncn2[C@@H]1O[C@H](COP(=O)(O)O)[C@@H](O)[C@H]1O` [5'-AMP, 5'-adenosine monophosphate] was run?
A: The Relative activity was 0%.

Q: Which Relative activity (nucleoside oxidase YT-1 [3]; substrate 10 mM) does the source give for `Nc1ncnc2c1ncn2[C@@H]1O[C@H](COP(=O)(O)OP(=O)(O)OP(=O)(O)O)[C@@H](O)[C@H]1O` [5'-ATP] here?
A: Its Relative activity is 0%.

Q: `Nc1nc2c(ncn2[C@@H]2O[C@H](COP(=O)(O)O)[C@@H](O)[C@H]2O)c(=O)[nH]1` [5'-GMP] was tested. Which Relative activity (nucleoside oxidase YT-1 [3]; substrate 10 mM) did it give?
A: Its Relative activity is 0%.

Q: `Nc1ncnc2nc[nH]c12` [Adenine] was tested. Which Relative activity (nucleoside oxidase YT-1 [3]; substrate 10 mM) did it give?
A: The Relative activity was 0%.

Q: With `Nc1ncnc2c1ncn2[C@@H]1O[C@H](CO)[C@@H](O)[C@H]1O` [Adenosine] as the molecule, how does the Relative activity (nucleoside oxidase YT-1 [3]; substrate 10 mM) read?
A: Its Relative activity is 97.3%.

Q: Which “Change in absorption spectrum due to reaction” value (nucleoside oxidase YT-1 [2]) does the source give for `O=C(O)/C=C/c1ccc(O)c(O)c1` [Caffeic acid] here?
A: Its value is “New peak at 310 nm”.

Q: `[Cl-].[Cl-].[Co+2]` [CoCl2] was tested. Which Relative activity (nucleoside oxidase YT-1 [4]) did it give?
A: Its Relative activity is 103%.

Q: With `Nc1ccn([C@@H]2O[C@H](CO)[C@@H](O)[C@H]2O)c(=O)n1` [Cytidine] as the molecule, how does the Relative activity (nucleoside oxidase YT-1 [3]; substrate 10 mM) read?
A: Its Relative activity is 77.5%.

Q: With `Nc1cc[nH]c(=O)n1` [Cytosine] as the molecule, how does the Relative activity (nucleoside oxidase YT-1 [3]; substrate 20 mM) read?
A: The Relative activity was 0%.

Q: With `O=P(O)(O)OC1O[C@H](CO)[C@@H](O)[C@H]1O` (stereo partly drawn) [D-ribose-1-phosphoric acid] as the molecule, how does the Relative activity (nucleoside oxidase YT-1 [3]; substrate 20 mM) read?
A: The Relative activity was 0%.

Q: For `O=P(O)(O)OC[C@H]1OC(O)[C@H](O)[C@@H]1O` (stereo partly drawn) [D-ribose-5-phosphoric acid], which Relative activity (nucleoside oxidase YT-1 [3]; substrate 20 mM) is on record?
A: The Relative activity was 0%.

Q: Which “Substrate specificity (enzyme active / not active on substance)” value (nucleoside oxidase YT-1 [3]) does the source give for `O=C[C@H](O)[C@H](O)[C@H](O)CO` [D-ribose] here?
A: Its value is “not active”.

Q: What about the Relative activity (nucleoside oxidase YT-1 [3]; substrate 20 mM) of the same molecule?
A: The Relative activity was 0%.

Q: For `Nc1ncnc2c1ncn2[C@H]1C[C@H](O)[C@@H](CO)O1` [Deoxyadenosine], which Relative activity (nucleoside oxidase YT-1 [3]; substrate 10 mM) is on record?
A: The Relative activity was 81.4%.

Q: `Nc1nc2c(ncn2[C@H]2C[C@H](O)[C@@H](CO)O2)c(=O)[nH]1` [Deoxyguanosine] was tested. Which Relative activity (nucleoside oxidase YT-1 [3]; substrate 10 mM) did it give?
A: The Relative activity was 92.3%.

Q: How did the Relative activity (nucleoside oxidase YT-1 [3]; substrate 10 mM) turn out when `OC[C@H]1O[C@@H](n2cnc3c(O)ncnc32)C[C@@H]1O` [Deoxyinosine] was run?
A: The Relative activity was 80.7%.

Q: With `Cc1cn([C@H]2C[C@H](O)[C@@H](CO)O2)c(=O)[nH]c1=O` [Deoxythymidine] as the molecule, how does the Relative activity (nucleoside oxidase YT-1 [3]; substrate 10 mM) read?
A: Its Relative activity is 77.3%.

Q: For `O=C(O)CN(CCN(CC(=O)O)CC(=O)O)CC(=O)O` [EDTA], which Relative activity (nucleoside oxidase YT-1 [5]; nucleoside oxidase yt-1, pH 6, 10 min, 1000 µM) is on record?
A: Its Relative activity is 101%.

Q: For `O=S(=O)([O-])[O-].[Fe+2]` [FeSO4], which Relative activity (nucleoside oxidase YT-1 [4]) is on record?
A: Its Relative activity is 93.4%.

Q: For `Nc1nc2nc[nH]c2c(=O)[nH]1` [Guanine], which Relative activity (nucleoside oxidase YT-1 [3]; substrate 0.4 mM) is on record?
A: The Relative activity was 0%.

Q: Which Relative activity (nucleoside oxidase YT-1 [3]; substrate 10 mM) does the source give for `Nc1nc2c(ncn2[C@@H]2O[C@H](CO)[C@@H](O)[C@H]2O)c(=O)[nH]1` [Guanosine] here?
A: The Relative activity was 121%.

Q: `[Cl][Hg][Cl]` [HgCl2] was tested. Which Relative activity (nucleoside oxidase YT-1 [5]; [11]) did it give?
A: The Relative activity was 69.2%.

Q: For `NN.O=S(=O)(O)O` [Hydrazine sulfate], which Relative activity (nucleoside oxidase YT-1 [5]; [11]) is on record?
A: The Relative activity was 101%.

Q: `NO` [Hydroxylamine] was tested. Which Relative activity (nucleoside oxidase YT-1 [5]; [11]) did it give?
A: The Relative activity was 87.8%.

Q: What about the Relative activity (nucleoside oxidase YT-1 [5]; inhibitor 10 mM, enzyme 0.02 U on inosine, pH 6.0, 25° C., 10 minutes) of the same molecule?
A: Its Relative activity is 63.2%.

Q: For `O=c1[nH]cnc2nc[nH]c12` [Hypoxanthine], which “Substrate specificity (enzyme active / not active on substance)” value (nucleoside oxidase YT-1 [3]) is on record?
A: Its value is “not active”.

Q: And the Relative activity (nucleoside oxidase YT-1 [3]; substrate 5.2 mM)?
A: Its Relative activity is 0%.

Q: Which results are given for `OC[C@H]1O[C@@H](n2cnc3c(O)ncnc32)[C@H](O)[C@@H]1O` [Inosine]?
A: hydrogen peroxide formed (nucleoside oxidase YT-1 [6]; 50 nanomoles of inosine as substrate): No hydrogen peroxide was detected; oxygen consumption (nucleoside oxidase YT-1 [6]; 50 nanomoles of inosine, one U enzyme, 1 ml 100 mM phosphate buffer): 51 nmol; P-2 produced (nucleoside oxidase YT-1 [6]; from 50 nanomoles of inosine, one U enzyme): 47 nmol; Km (nucleoside oxidase YT-1 [7]): 44 µM; Substrate specificity (enzyme active / not active on substance) (nucleoside oxidase YT-1 [3]): Active; Relative activity (nucleoside oxidase YT-1 [3]; substrate 10 mM): 100%
